{
  "source": "patent US4317912A",
  "about": "“Tetracyclic indole derivatives” (Farmitalia Carlo Erba S.p.A., priority 1979, dated 1982)",
  "key": {"[1]": {"test": "Acute (orientative) oral toxicity in mice", "conditions": "mouse, in vivo", "from_the_text": "The male mice for each group were orally treated with drugs at different dose levels for the determination of orientative toxicity."}, "[2]": {"test_system": "spontaneously hypertensive male rats, strain MHS", "test": "Anti-hypertensive activity in spontaneously hypertensive rats (MHS), blood pressure and heart rate measured at the tail", "assay_type": "in vivo, rat (spontaneously hypertensive", "conditions": "MHS rats; for Change in BP, 1st day, 1 hr after dose / Change in HR, 1st day, 1 hr after dose / Change in BP, 1st day, 5 hrs after dose / Change in HR, 1st day, 5 hrs after dose / Change in BP, 4th day, 1 hr after dose / Change in HR, 4th day, 1 hr after dose / Change in HR, 4th day, 5 hrs after dose / Change in BP, 4th day, 5 hrs after dose: mean of 4 animals", "description": "Four spontaneously hypertensive male rats, strains MHS, weighing 250-300 g for each group were used.\nThe animals were treated for four consecutive days. Drugs were administered by gastric gavage, suspended in 5% arabic gum (0.2 ml/100 g body weight). Blood pressure (BP) and heart rate (HR) were measured at the tail by BP Recorder W+W. Blood pressure and heart rate were measured on the 1st and 4th day of treatment 1 hour before and 1 and 5 hours after drug administration.\n*Data of LD50 from the literature. In Tables 1 and 2 are reported\nthe results of the study of the activity of compounds 355/1165 and\n355/1166 upon the BP and HR (measured indirectly by means of a tail cuff)\nof spontaneous hypertensive rats, MHS strain (4 rats each group). The\ncompounds were given orally, once a day for 4 consecutive days."}, "[3]": {"test_system": "spontaneously hypertensive rats (Okamoto strain)", "test": "Anti-hypertensive activity in conscious spontaneously hypertensive rats (Okamoto), carotid artery catheter", "assay_type": "in vivo, rat (spontaneously hypertensive", "conditions": "3 mg/kg os, mean of 6 animals", "description": "Blood pressure recordings were made in conscious hypertensive unrestrained rats weighing approximately 300 g, via a catheter cronically inserted into the left common carotid artery. Implantation of arterial cannula was made under sodium pentobarbital anesthesia (50 mg/kg i.p.). A 1 cm long incision was made through the previously shaved ventral surface of the neck and the tissues overlying the trachea parted by blunt dissection to reveal the carotid artery. The polyethylene catheter used was made with PE 50 tubing, previously filled with saline containing 250 I.U./ml heparin. The tip of the cannula was pushed at least 2 cm inside the vessel toward the heart. The cannula was then firmly tied and passed beneath the skin to emerge from a small incision in the back of the neck. During the postoperative period and before the start of each recording session, the cannula was flushed through daily with saline containing heparin (250 U.I./ml). The experiments were performed two days after surgery. Drugs were administered by gastric gavage."}},
  "data": [
    {"compound": "CN1CC(CC(C#N)C(N)=O)C2=Cc3cccc4[nH]cc(c34)CC21", "note": "(stereo not drawn) [355/1229, 2-Cyano-3-[5(10→9)abeo-9,10-didehydro-6-methyl-ergoline-8β]-propionamide]", "values": [
      {"measurement": "LD50 at 168 h", "setting": "[1]", "result": 600, "unit": "mg/kg"},
      {"measurement": "Change in BP, 1st day, 1 hr after dose", "setting": "[2]; 1 mg/kg os", "result": -26, "unit": "mmHg"},
      {"measurement": "Change in HR, 1st day, 1 hr after dose", "setting": "[2]; 1 mg/kg os", "result": "+25 b/min"},
      {"measurement": "Change in BP, 1st day, 5 hrs after dose", "setting": "[2]; 1 mg/kg os", "result": -19, "unit": "mmHg"},
      {"measurement": "Change in HR, 1st day, 5 hrs after dose", "setting": "[2]; 1 mg/kg os", "result": -2, "unit": "b/min"},
      {"measurement": "Change in BP, 4th day, 1 hr after dose", "setting": "[2]; 1 mg/kg os", "result": -21, "unit": "mmHg"},
      {"measurement": "Change in HR, 4th day, 1 hr after dose", "setting": "[2]; 1 mg/kg os", "result": -18, "unit": "b/min"},
      {"measurement": "Change in HR, 4th day, 5 hrs after dose", "setting": "[2]; 1 mg/kg os", "result": -53, "unit": "b/min"},
      {"measurement": "Change in BP, 1st day, 1 hr after dose", "setting": "[2]; 5 mg/kg os", "result": -26, "unit": "mmHg"},
      {"measurement": "Change in HR, 1st day, 1 hr after dose", "setting": "[2]; 5 mg/kg os", "result": -40, "unit": "b/min"},
      {"measurement": "Change in BP, 1st day, 5 hrs after dose", "setting": "[2]; 5 mg/kg os", "result": -20, "unit": "mmHg"},
      {"measurement": "Change in HR, 1st day, 5 hrs after dose", "setting": "[2]; 5 mg/kg os", "result": -35, "unit": "b/min"},
      {"measurement": "Change in BP, 4th day, 1 hr after dose", "setting": "[2]; 5 mg/kg os", "result": -36, "unit": "mmHg"},
      {"measurement": "Change in HR, 4th day, 1 hr after dose", "setting": "[2]; 5 mg/kg os", "result": -50, "unit": "b/min"},
      {"measurement": "Change in BP, 4th day, 5 hrs after dose", "setting": "[2]; 5 mg/kg os", "result": -45, "unit": "mmHg"},
      {"measurement": "Change in HR, 4th day, 5 hrs after dose", "setting": "[2]; 5 mg/kg os", "result": -55, "unit": "b/min"},
      {"measurement": "Activity compared with Hydralazine and α-methyl-DOPA", "setting": "[2]; 5 mg/kg per os, 1st and 4th day, vs Hydralazine (3 mg/kg per os) and α-methyl-DOPA", "result": "greater activity"},
      {"measurement": "Effect on blood pressure", "setting": "[2]; 1 and 5 mg/kg orally, 1st and 4th day", "result": "both dosages reduce BP in a similar way on the 1st day, when during the 4th day the decrease of BP is dose-dependent"},
      {"measurement": "Tolerance after repeated administration", "setting": "[2]; four days, 355/1165 2 mg/kg, 355/1226 3 mg/kg, 355/1225 and 355/1229 5 mg/kg per os", "result": "No tolerance occurs"}
    ]},
    {"compound": "NNc1nncc2ccccc12", "note": "[Hydralazine, reference compound]", "values": [
      {"measurement": "Change in blood pressure after treatment, 30'", "setting": "[3]; 30'", "result": -25, "unit": "mmHg"},
      {"measurement": "Change in heart rate after treatment, 30'", "setting": "[3]; 30'", "result": "+50 b/min"},
      {"measurement": "Change in blood pressure after treatment, 60'", "setting": "[3]; 60'", "result": -33, "unit": "mmHg"},
      {"measurement": "Change in heart rate after treatment, 60'", "setting": "[3]; 60'", "result": "+21 b/min"},
      {"measurement": "Change in blood pressure after treatment, 120'", "setting": "[3]; 120'", "result": -40, "unit": "mmHg"},
      {"measurement": "Change in heart rate after treatment, 120'", "setting": "[3]; 120'", "result": "+52 b/min"},
      {"measurement": "Change in blood pressure after treatment, 240'", "setting": "[3]; 240'", "result": -29, "unit": "mmHg"},
      {"measurement": "Change in heart rate after treatment, 240'", "setting": "[3]; 240'", "result": "+3 b/min"},
      {"measurement": "Change in blood pressure after treatment, 360'", "setting": "[3]; 360'", "result": -7, "unit": "mmHg"},
      {"measurement": "Change in heart rate after treatment, 360'", "setting": "[3]; 360'", "result": "+3 b/min"},
      {"measurement": "Change in BP, 1st day, 1 hr after dose", "setting": "[2]; 1 mg/kg os", "result": 0, "unit": "mmHg"},
      {"measurement": "Change in HR, 1st day, 1 hr after dose", "setting": "[2]; 1 mg/kg os", "result": "+20 b/min"},
      {"measurement": "Change in BP, 1st day, 5 hrs after dose", "setting": "[2]; 1 mg/kg os", "result": -10, "unit": "mmHg"},
      {"measurement": "Change in HR, 1st day, 5 hrs after dose", "setting": "[2]; 1 mg/kg os", "result": "+25 b/min"},
      {"measurement": "Change in BP, 4th day, 1 hr after dose", "setting": "[2]; 1 mg/kg os", "result": "+7 mmHg"},
      {"measurement": "Change in HR, 4th day, 1 hr after dose", "setting": "[2]; 1 mg/kg os", "result": "+30 b/min"},
      {"measurement": "Change in BP, 4th day, 5 hrs after dose", "setting": "[2]; 1 mg/kg os", "result": "+2 mmHg"},
      {"measurement": "Change in HR, 4th day, 5 hrs after dose", "setting": "[2]; 1 mg/kg os", "result": "+15 b/min"},
      {"measurement": "Change in BP, 1st day, 1 hr after dose", "setting": "[2]; 3 mg/kg os", "result": -43, "unit": "mmHg"},
      {"measurement": "Change in HR, 1st day, 1 hr after dose", "setting": "[2]; 3 mg/kg os", "result": "+31 b/min"},
      {"measurement": "Change in BP, 1st day, 5 hrs after dose", "setting": "[2]; 3 mg/kg os", "result": -29, "unit": "mmHg"},
      {"measurement": "Change in HR, 1st day, 5 hrs after dose", "setting": "[2]; 3 mg/kg os", "result": "+34 b/min"},
      {"measurement": "Change in BP, 4th day, 1 hr after dose", "setting": "[2]; 3 mg/kg os", "result": -15, "unit": "mmHg"},
      {"measurement": "Change in HR, 4th day, 1 hr after dose", "setting": "[2]; 3 mg/kg os", "result": "+18 b/min"},
      {"measurement": "Change in BP, 4th day, 5 hrs after dose", "setting": "[2]; 3 mg/kg os", "result": "+5 mmHg"},
      {"measurement": "Change in HR, 4th day, 5 hrs after dose", "setting": "[2]; 3 mg/kg os", "result": "+13 b/min"},
      {"measurement": "Effect on heart rate", "setting": "[2]; oral, all doses treated (Table 2)", "result": "no effect on heart rate"}
    ]}
  ]
}
